# Assay results taken from patent US20070293443A1, “Composition for Accelerating Calcium Absorption” (Good Shusei Co. Ltd, priority 2004, published 2007).
# Entries after “also recorded” stand apart in the source; their conditions may differ.
# Legend:
# [1] = tested on: dietary calcium absorption; assay: Dietary calcium absorption accelerating effect, blood calcium level after oral calcium carbonate with test substance (Example 1); format: in vivo; settings: male ICR mice, oral 5 mmol/kg calcium carbonate alone or with test substance (1.25-10.0 mmol/kg), up to 4 hours after administration
# Text: For the experiment, 11-weeks old male ICR mice were used after overnight fasting. During the test period, the mice were given deionized water only. […] The doses of L-arabonic acid administered in combination were 1.25 mmol/kg (Group II), 2.5 mmol/kg (Group III), 5.0 mmol/kg (Group IV), and 10.0 mmol/kg (Group V), and the doses of D-gluconic acid were 2.5 mmol/kg (Group VI), 5.0 mmol/kg (Group VII), and 10.0 mmol/kg (Group VIII). […] The blood calcium level was quantified by a chelate colorimetric method (ortho-cresolphthalein complexone (OCPC) method). The obtained data were analyzed by a paired t-test, and a risk ratio of 5% or less was considered as significant difference.
# [2] = Kinetics of L-arabonic acid in the digestive tract of rat (Example 3); format: in vivo
# Description: For the experiment, 7 to 11-weeks old male Wistar rats were used after overnight fasting. After orally administering 5 mmol/kg of L-arabonic acid, the animals were entered into a metabolic cage, and were sacrificed after 2 hours, after 6 hours, and after 24 hours, to remove the digestive tracts. The contents in each site of the digestive tract were recovered respectively, and the amount of unaltered L-arabonic acid was quantified by the HPLC method. The entire amounts of urine and feces up to the respective time points were recovered, and the amounts of L-aranobic acid were quantified in the same manner. During the test period, the animals were given deionized water only.
# mice = assay: Single oral administration safety test, LD50; format: in vivo
# Text: As a result of a single oral test using mice, it was confirmed that the LD50 value of L-arabonic acid was about 10 g/kg, and thus L-arabonic acid was a material having high safety.
# While it was discovered in Example 5 that the calcium moiety of calcium L-arabonate used in the invention was extremely readily-absorbable, it was shown in Example 6 that the L-arabonic acid moiety was extremely poorly absorbed in the digestive tract.
# [3] = tested on: dietary calcium absorption; assay: Dietary calcium absorption accelerating effect of sodium L-arabonate in mice fed calcium-deficient diet (Example 2); format: in vivo; settings: for Ca level in blood, 0 min: 0 min (before administration); for Ca level in blood, 0 min / Ca level in blood, 2 hrs / Ca level in blood, 4 hrs: oral 5 mmol/kg calcium carbonate alone (Group I) or with 5 mmol/kg sodium L-arabonate (Group II), n = 4; for Ca level in blood, 2 hrs: 2 hrs after administration; for Ca level in blood, 4 hrs: 4 hrs after administration; for change in blood calcium level: up to 4 hours after oral administration, mice on calcium-deficient diet
# Description: Eight-week old male ICR mice were used and fed calcium-deficient diet and deionized water for one week. The mice were fasted overnight before the test, and were given deionized water only during the test period. […] The obtained data were analyzed by a paired t-test, and a risk ratio of 5% or less was considered as significant difference.
# [4] = Blood calcium level after administration of calcium L-arabonate (Example 5); format: in vivo; settings: male ICR mice, oral calcium L-arabonate 1.25, 2.5, 5.0 mmol/kg or calcium carbonate 5 mmol/kg, up to 4 hours
# Description: For the experiment, 11-weeks old male ICR mice were used after overnight fasting. During the test period, the mice were given deionized water only. The mice were divided into four groups (Groups I to IV, 5 animals in each group), and the test substance was orally administered as a solution in deionized water. […] The blood calcium level was quantified by a chelating calorimetric method (ortho-cresolphthalein complexone (OCPC) method). The obtained data were analyzed by a paired t-test, and a risk ratio of 5% or less was considered as significant difference.
# [5] = tested on: experimental osteoporosis induced by calcium-deficient diet; assay: Experimental osteoporosis induced by calcium-deficient diet (Example 7); format: in vivo, mice; settings: dose 2.5 mmol/kg oral daily
# Description: (§1) Six-week old female ICR mice were divided into five groups (Groups I to V, 10 animals in each group), and fed calcium-deficient feed (calcium carbonate-free AIN 93M, Oriental Yeast Co., Ltd.) for 4 weeks to induce osteoporosis condition. Calcium L-arabonate was dissolved in water and orally administered daily in a dose of 1.25 mmol/kg (Group II) or 2.5 mmol/kg (Group III). The control group for pathological condition (Group I) was administered with water in the same manner. As a comparative group, a group administered with calcium D-gluconate (dose 2.5 mmol/kg (Group IV)) was provided. A normal control group (Group V) was separately provided and was given the normal feed (AIN 93M, Oriental Yeast Co., Ltd.). After administering the test substance on the second week and fourth week of initiation of the test, the animals were transferred to a metabolic cage, and feces were collected for 24 hours. The amount of calcium and phosphorus excreted in the feces were measured, and the absorption rates of ingested calcium and phosphorous in the digestive tract were determined. After completion of the test period, the animals of the respective groups were sacrificed to remove both femurs and tibiae. The femurs and tibiae were removed muscles etc., then immersed in 70% ethanol overnight, and dried at 60° C. for 24 hours to be used as samples for analysis. The measurement items were dry weight, ash content, calcium content, and phosphorus content. The ash content was measured by an ashing method at 550° C. for 18 hours, the calcium content was measured by an OCPC method (Calcium C-Test Wako, Wako Pure Chemical Industries, Ltd.), and the phosphorus content was measured by a p-methylaminophenol reduction method (Phospho C-Test Wako, Wako Pure Chemical Industries, Ltd.). The obtained data were analyzed by ANOVA and the Dunnett's method, and a risk ratio of 5% or less was considered as significant difference.
# [6] = tested on: experimental osteoporosis induced by combination of ovary excision and calcium-deficient diet; assay: Experimental osteoporosis due to combination of ovary excision and calcium-deficient diet (Example 8); format: in vivo, mice; settings: dose 2.5 mmol/kg oral daily
# Description: as §1
# Six-weeks old female ICR mice excised their ovaries were divided into 5 groups (Groups I to V, 10 animals in each group), and fed calcium-deficient feed (calcium carbonate-free AIN 93M, Oriental Yeast Co., Ltd.) for 4 weeks to induce osteoporosis condition. Calcium L-arabonate was dissolved in water, and orally administered daily in a dose of 1.25 mmol/kg (Group II) or 2.5 mmol/kg (Group III). The control group for pathological condition (Group I) was administered with water in the same manner. As a comparative group, a group administered with calcium D-gluconate (dose 2.5 mmol/kg (Group IV)) was provided. Also, a group excised ovaries but given with normal feed (AIN 93M, Oriental Yeast Co., Ltd.) (Group V) was separately provided. The measurement of the absorption rate of calcium in the digestive tract, and the analysis of femur and tibia were performed in the same manner as in Example 7.
compound,measurement,setting,value
"O=C(O)[C@H](O)[C@@H](O)[C@H](O)[C@H](O)CO [D-gluconic acid, reference compound]",change in blood calcium level,[1],not observed to have significant increases in the blood calcium level
O=C(O)[C@H](O)[C@@H](O)[C@@H](O)CO [L-arabonic acid],share of the total amount of administration remained in the cecum and colon,"[2]; after 24 hours, oral 5 mmol/kg",About 30%
same,absorption in the small intestine,[2]; from 2 to 6 hours after oral administration,hardly absorbed in the small intestine
same,"Residual ratio after administration, Cecum, After 2 hrs","[2]; oral 5 mmol/kg L-arabonic acid, cecum, 2 hrs",47.7 ± 3.39%
same,"Residual ratio after administration, Cecum, After 6 hrs","[2]; oral 5 mmol/kg L-arabonic acid, cecum, 6 hrs",60.6 ± 3.26%
same,"Residual ratio after administration, Cecum, After 24 hrs","[2]; oral 5 mmol/kg L-arabonic acid, cecum, 24 hrs",25.9 ± 7.81%
same,"Residual ratio after administration, Colon, After 2 hrs","[2]; oral 5 mmol/kg L-arabonic acid, colon, 2 hrs",0.1 ± 0.14%
same,"Residual ratio after administration, Colon, After 6 hrs","[2]; oral 5 mmol/kg L-arabonic acid, colon, 6 hrs",7.4 ± 2.35%
same,"Residual ratio after administration, Colon, After 24 hrs","[2]; oral 5 mmol/kg L-arabonic acid, colon, 24 hrs",1.9 ± 0.37%
same,"Residual ratio after administration, Small intestine, After 2 hrs","[2]; oral 5 mmol/kg L-arabonic acid, small intestine, 2 hrs",23.0 ± 3.71%
same,"Residual ratio after administration, Small intestine, After 6 hrs","[2]; oral 5 mmol/kg L-arabonic acid, small intestine, 6 hrs",3.3 ± 2.50%
same,"Residual ratio after administration, Small intestine, After 24 hrs","[2]; oral 5 mmol/kg L-arabonic acid, small intestine, 24 hrs",0.8 ± 0.20%
same,"Residual ratio after administration, Stomach, After 2 hrs","[2]; oral 5 mmol/kg L-arabonic acid, stomach, 2 hrs",0%
same,"Residual ratio after administration, Stomach, After 6 hrs","[2]; oral 5 mmol/kg L-arabonic acid, stomach, 6 hrs",0%
same,"Residual ratio after administration, Stomach, After 24 hrs","[2]; oral 5 mmol/kg L-arabonic acid, stomach, 24 hrs",0%
same,L-arabonic acid in excreted feces,"[2]; oral 5 mmol/kg, feces up to 24 hours",detected from the excreted feces
same,unaltered L-arabonic acid in urine,"[2]; oral 5 mmol/kg, urine up to 24 hours","detected from the urine, even in small amount"
same,level of L-arabonic acid in the blood,"[2]; throughout the test period, oral 5 mmol/kg",below the detection limit
same,LD50,mice,about 10 g/kg
same,change in blood calcium level,[1],"dose-dependent and significant increases in the blood calcium level; also recorded: calcium absorption was accelerated by L-arabonic acid, and the effect was rapidly acting and continuous"
"O=C([O-])[O-].[Ca+2] [calcium carbonate, reference compound]","Ca level in blood, 0 min",[3],4.67 ± 0.297 mg/dL
same,"Ca level in blood, 2 hrs",[3],4.58 ± 0.143 mg/dL
same,"Ca level in blood, 4 hrs",[3],4.82 ± 0.189 mg/dL
same,change in blood calcium level,[3],did not show any increase in the blood calcium level
same,change in blood calcium level,[4],did not show any increase in the blood calcium level
same,change in blood calcium level,[1],did not show any increase in the blood calcium level
O=C([O-])[C@H](O)[C@@H](O)[C@@H](O)CO.[Na+] [sodium L-arabonate],"Ca level in blood, 0 min",[3],4.30 ± 0.121 mg/dL
same,"Ca level in blood, 2 hrs",[3],5.59 ± 0.232 mg/dL
same,"Ca level in blood, 4 hrs",[3],5.62 ± 0.212 mg/dL
same,change in blood calcium level,[3],significant increase in the blood calcium level
calcium D-gluconate [reference compound],"absorption rate of calcium in the digestive tract, fourth week","[5]; fourth week, calcium-deficient diet mice",59.8%
same,"absorption rate of calcium in the digestive tract, second week","[5]; second week, calcium-deficient diet mice",74.2%
same,Femur Ash content,"[5]; femur, 4 weeks",25 ± 1.3 mg
same,Femur Ca content,"[5]; femur, 4 weeks",8.7 ± 0.42 mg
same,Femur P content,"[5]; femur, 4 weeks",4.7 ± 0.21 mg
same,Femur Weight,"[5]; femur, 4 weeks",46 ± 2.1 mg
same,Tibia Ash content,"[5]; tibia, 4 weeks",23 ± 1.2 mg
same,Tibia Ca content,"[5]; tibia, 4 weeks",8.3 ± 0.34 mg
same,Tibia P content,"[5]; tibia, 4 weeks",4.3 ± 0.16 mg
same,Tibia Weight,"[5]; tibia, 4 weeks",44 ± 1.1 mg
same,"absorption rate of calcium in the digestive tract, fourth week","[6]; fourth week, ovary-excised mice on calcium-deficient diet",45.1%
same,"absorption rate of calcium in the digestive tract, second week","[6]; second week, ovary-excised mice on calcium-deficient diet",61.1%
same,Femur Ash content,"[6]; femur, 4 weeks",27 ± 0.4 mg
same,Femur Ca content,"[6]; femur, 4 weeks",9.4 ± 0.18 mg
same,Femur P content,"[6]; femur, 4 weeks",4.8 ± 0.14 mg
same,Femur Weight,"[6]; femur, 4 weeks",50 ± 1.2 mg
same,Tibia Ash content,"[6]; tibia, 4 weeks",24 ± 0.5 mg
same,Tibia Ca content,"[6]; tibia, 4 weeks",8.6 ± 0.21 mg
same,Tibia P content,"[6]; tibia, 4 weeks",4.4 ± 0.08 mg
same,Tibia Weight,"[6]; tibia, 4 weeks",46 ± 1.0 mg
